The source of these data is a melting point compilation (Tetko et al.).

`Cc1cc(C=O)c(C)n1C1CCCCC1`: the melting point was 75 to 77 °C.
To `COc1cc(F)c(C(=O)O)cc1OC` belongs 192 to 194 °C; to `O=C(O)C1CCCN1C(=O)Nc1ccccc1` (stereo not drawn), 161 to 163 °C.
To `CC(NC(=O)CC#N)c1ccccc1` (stereo not drawn) belongs 115 to 117 °C; to `O=Cc1ccc(-c2ccc(C(F)(F)F)cc2)o1`, 106 to 108 °C.
In turn, `COC(=O)c1ccc(CNC(=O)CCl)cc1` had a melting point of 108 to 110 °C.
The same measure for `CC(=O)c1cc([N+](=O)[O-])ccc1N`: 144 to 146 °C; for `NCC(O)c1cc(Cl)c2c(c1)OCCO2` (stereo not drawn): 131 to 133 °C.
To `Cn1nc(C(=O)O)cc1C1CC1` belongs 196 to 198 °C.
The same measure for `NC(=O)CC1CCNCC1`: 146 to 148 °C.
`Cc1ccc(-c2nn(-c3ccccc3)cc2/C=C/C(=O)O)o1` yielded a melting point of 238 to 240 °C.
The same measure for `O=C(NCCc1ccc(O)cc1)c1ccc(Cl)cc1`: 168 to 170 °C.
The same measure for `Clc1ccc2nc(Cl)nc(Cl)c2c1`: 89 to 91 °C.
The same measure for `CC1(COS(C)(=O)=O)COC1`: 32 to 34 °C.
Consider `Cc1nn(CCCl)c(C)c1C=O`, for which the melting point fell in the range of 49 to 51 °C.
`ON=C1CCN(Cc2ccccn2)CC1`: the melting point was 61 to 63 °C.
The same measure for `O=Cc1cn(Cc2cccnc2)nn1`: 97 to 99 °C; for `CN(CCCN1C(=O)C=CC1=O)c1ccccc1`: 84 to 86 °C; for `O=C(O)c1c[nH]cc1C1CC1`: 150 to 152 °C.
The same measure for `COc1ccc(-c2csc(N)n2)cc1Br`: 188 to 190 °C; for `O=C1NCCc2ccc(Br)cc21`: 144 to 146 °C.
With `NS(=O)(=O)Cc1ccccc1Cl`, the melting point lay within 104 to 106 °C.
The same measure for `CC(C)CNC(=O)c1ccccc1N`: 109 to 111 °C.
To `O=C(O)CN(Cc1cccnc1)c1ccccc1` belongs 136 to 138 °C; to `O=[N+]([O-])c1ccc(CCS(=O)(=O)Cl)cc1`, 89 to 91 °C; to `Cc1cc(Oc2cnccn2)ccc1N`, 125 to 127 °C.
To `CCOC(=O)/C(C#N)=C\Nc1ccc(C)cc1` belongs 134 to 136 °C; to `C=CCN1C(=O)C(=O)N(CC(=O)O)C1=O`, 143 to 145 °C; to `OCc1nnc(-c2ccccc2)n1-c1ccccc1`, 199 to 201 °C.
`COc1ccccc1C(CN)NC(=O)OC(C)(C)C` (stereo not drawn): the melting point was 145 to 147 °C.
`CCCCCCOc1ccc(C(=O)O)cc1OC` yielded a melting point of 122 to 124 °C.
`Nc1ccccc1C(=O)NC1CCCC1` yielded a melting point of 174 to 176 °C.
In the case of `Cc1cc(Br)cc(C)c1S(=O)(=O)Cl`, the melting point lay within 49 to 51 °C.
The same measure for `NNc1ccc(S(=O)(=O)Nc2ccc(Cl)cc2)cc1[N+](=O)[O-]`: 187 to 189 °C.
Turning to `O=C(O)CCC1CCNCC1`, the melting point was in the range of 275 to 277 °C.
The same measure for `N#Cc1cc(C(F)(F)F)ccc1C(=O)O`: 113 to 115 °C; for `CN(C)c1ccc(/C=C/C(=O)c2ccc([N+](=O)[O-])cc2)cc1`: 213 to 215 °C.
The same measure for `N#Cc1c(Cl)nc2ccccn12`: 181 to 183 °C; for `CS(=O)(=O)Nc1ccc(S(=O)(=O)Cl)cc1`: 141 to 143 °C; for `O=C(O)Cn1nnc(COc2ccccc2)n1`: 111 to 113 °C.
The same measure for `O=C(O)CCCN1C(=O)CCC1=O`: 102 to 104 °C; for `CC(C)Cc1cc(C(=O)O)cc(O)n1`: 235 to 237 °C.
Regarding `O=C(Nc1ccc(C(=O)O)c(O)c1)c1cc(F)cc(F)c1`, the melting point is 269 to 271 °C.
To `COCCOc1ccc(C(F)(F)F)cc1N` belongs 43 to 47 °C; to `O=C(CCl)N1CCCC1=O`, 33 to 35 °C; to `CC(=O)NC1(c2noc(CCC(=O)O)n2)CCCCCC1`, 149 to 151 °C.
`CCc1nc(N)sc1C` gave a melting point of 73 to 75 °C.
The same measure for `O=S1(=O)N=C2CCCCCN2C(c2ccncc2)N1` (stereo not drawn): 176 to 178 °C.
